According to paper PMC7177638 (International Journal of Molecular Sciences, 2020):

Tests used:
[1] = XPS Pt4f surface reduction of Pt(IV) to Pt(II) under X-ray irradiation; type: physicochemical; settings: after 30 min irradiation, calculated from Pt(IV) abundances
Text: The Pt(IV) complexes were also characterized by X-ray photoelectron spectroscopy (XPS) in order to obtain information on the surface chemical composition and on the platinum speciation. Despite the surface sensitivity of the technique (topmost 5–8 nm), the analysis on homogeneous samples provides useful information on the chemical environment of all detected elements. […] Two doublets were found: one is attributed to Pt(II) (BE Pt4f7/2 = 72.9 ± 0.2 eV and BE Pt4f5/2 = 76.2 ± 0.2 eV), while the second doublet is attributed to Pt(IV) (BE Pt4f7/2 = 75.6 ± 0.2 eV and BE Pt4f5/2 = 79.0 ± 0.2 eV).
The Pt(IV)/Pt(II) relative abundance varies from case to case; moreover, if the X-ray degradation is monitored after 30 min exposure to the X-ray beam, an increase of the Pt(II) relative abundance is observed (Figure 8b).
X-ray Photoelectron Spectroscopy (XPS) analyses were run on a PHI 5000 Versa Probe II Scanning XPS Microprobe spectrometer (ULVAC PHI Inc., Kanagawa, Japan). Measurements were carried out using a monochromatic Al Kα source (X-ray spot 200 μm) at a power of 50.3 W. Wide scan and detailed spectra (Pt4f, C1s, Cl2p, N1s, O1s) were acquired in Constant Analyzer Energy (CAE) mode with a pass energy of 117.40 and 29.35 eV, respectively. An electron gun was used for charge compensation (1.0 V, 20.0 μA). Due to the X-ray sensitivity of Pt(IV) complexes, the Pt4f spectral region was acquired first. X-ray degradation kinetics experiments were performed analyzing the same sample area after 30 min. Data processing was performed by using the MultiPak software v. 9.8.0.19.

A431 cells = assay: Cellular accumulation of Pt (GF-AAS); type: cell-based, human; settings: 24 h, 0.5 μM
Method: It is clearly recognized that the antitumor activity of platinum-based anticancer drugs depends on the ability of compounds to accumulate into cancer cells and to bind to nuclear DNA, thus inducing transcription inhibition and cell death. Therefore, we investigated the cellular uptake as well as the DNA binding ability of 1–6 in human A431cervical cancer cells. Cells were treated for 24 h with 0.5 μM of 1–6 or CDDP and the total cellular and DNA-bound platinum contents were quantified using GF–AAS analysis. The results, expressed as ng of metal per 10^6 cells, in the case of cellular uptake (A) and as pg of metal per μg of DNA, in the case of DNA-bound platinum (B) are summarized in Figure 9.
A431 cells (2·10^6) were seeded in 75 cm^2 flasks in growth medium (20 mL). After 24 h, the medium was replaced and the cells incubated for 24 h in the presence of the tested complexes.
Cells monolayers were washed twice with cold phosphate-buffered saline (PBS), harvested, and counted. Samples were subjected to three freeze–thaw cycles at −80 °C, and then vigorously vortexed. The samples were treated with highly pure nitric acid (1 mL; Pt ≤ 0.01 mg kg^−1, Trace-SELECT Ultra, Sigma Chemical Co.) and transferred into a microwave Teflon vessel. Subsequently, samples were submitted to standard mineralization procedures. Samples were analyzed for platinum by using a Varian AA Duo graphite furnace atomic absorption spectrometer (Varian, Palo Alto, CA; USA) at a wavelength of […]. The calibration curve was obtained using known concentrations of standard solutions purchased from Sigma Chemical Co.

[2] = test system: 2008 human ovarian cancer cells; assay: MTT cytotoxicity test, 72 h; type: cell-based; settings: 2008, MTT
Method: (§1) The in vitro cytotoxic activities of compounds 1–6 were assayed on a panel of human cancer cell lines containing examples of pancreatic (PSN-1), colon (HCT-15 and LoVo), cervical (A431), and ovarian (2008) cancers. Cisplatin and oxaliplatin were used as reference compounds and were tested under the same experimental conditions.
(§2) Human colon (HCT-15 and LoVo) and pancreatic (PSN-1) carcinoma cell lines were obtained from the American Type Culture Collection (ATCC, RocKville, MD). The 2008 human ovarian cancer cells were kindly provided by Prof. G. Marverti (Dept. of Biomedical Science of Modena University, Italy). Human cervical carcinoma (A431) cells were kindly provided by Prof. F. Zunino (Division of Experimental Oncology B, Istituto Nazionale dei Tumori, Milan, Italy). […] Cell lines were maintained in the logarithmic phase at 37 °C in a 5% carbon dioxide atmosphere using RPMI-1640 or F-12 culture medium (Euroclone) containing 10% fetal calf serum (Euroclone, Milan, Italy), antibiotics (50 units per mL penicillin and 50 μg mL^−1 streptomycin), and 2 mM L-glutamine.
(§3) The growth inhibitory effect toward the tumor cell lines was evaluated by the MTT test. Briefly, 3-8·10^3 cells/well, depending upon the growth characteristics of the cell lines, were seeded in 96-well microplates in growth medium (100 µL) and then incubated at 37 °C in a 5% carbon dioxide atmosphere. After 24 h, the medium was removed and replaced with a fresh one containing the compound to be tested at the appropriate concentration. Triplicate cultures were established for each treatment. After 72 h, each well was treated with 10 µL of a 5 mg·mL^−1 MTT (3-(4,5-dimethylthiazol-2-yl)-2,5-diphenyltetrazolium bromide) saline solution and, after 5 h of incubation, 100 µL of a sodium dodecylsulfate (SDS) solution in HCl 0.01 M were added. Following an overnight incubation, the inhibition of cell growth induced by the tested complexes was evaluated by measuring the absorbance of each well at 570 nm using a Bio-Rad 680 microplate reader (Bio-Rad Laboratories S.r.l., Segrate (MI), Italy).

[3] = test system: LoVo human colon carcinoma cells; assay: MTT cytotoxicity test, 72 h; type: cell-based
Method: as §1, §2, §3

[4] = test system: HCT-15 human colon carcinoma cells; assay: MTT cytotoxicity test, 72 h; type: cell-based; settings: HCT-15, MTT
Method: as §1, §2, §3

[5] = test system: A431 human cervical carcinoma cells; assay: MTT cytotoxicity test, 72 h; type: cell-based
Method: as §1, §2, §3

[6] = test system: PSN-1 human pancreatic carcinoma cells; assay: MTT cytotoxicity test, 72 h; type: cell-based; settings: PSN-1, MTT
Method: as §1, §2, §3

[7] = test system: human A431 cancer cell spheroids; assay: Cytotoxicity towards 3D spheroids, acid phosphatase (APH) assay; type: cell-based; settings: A431 3D spheroids, 72 h; for IC50: APH assay
Text: The remarkable cell-killing effect observed against human A431 squamous cervical carcinoma two-dimensional (2D) cultured cells prompted us to evaluate the in vitro antitumor activity of compounds 1–6 on three-dimensional (3D) cell cultures. As opposed to 2D monolayer cultures, cells growing in 3D culture systems form spheroids that comprise cells in various stages. […] Such cellular heterogeneity resembles that of in vivo tumors, making 3D cell cultures more predictive than conventional 2D monolayer cultures in screening antitumor drugs.
Spheroid cultures were obtained by seeding 2.5 × 10^3 A431 cancer cells/well in a round bottom non-treated tissue culture 96 well-plate (Greiner Bio-one, Kremsmünster, Austria) in phenol red free RPMI-1640 medium (Sigma Chemical Co.) containing 10% fetal calf serum (FCS) and supplemented with 20% methyl cellulose stock solution.
An APH modified assay was used for determining cell viability in 3D spheroids, as previously described. IC50 values were calculated with a four parameter logistic (4-PL) model.

In the case of `NC1CC=CCC1N.O=C([O-])C(=O)[O-].O=C([O-])c1ccccc1.O=C([O-])c1ccccc1.[Pt+4]` (mixture of isomers) [Complex 3, cis,trans,cis-[Pt(OXA)(BzO)2(DACHEX)]], the “% of Reduction” value [1] is reported as 66%, the “cellular uptake (cellular internalization of Pt), in words” value (from here on “cellular uptake”) (A431 cells) is reported as “the most effective in entering cancer cells” and the IC50 [2] is reported as 0.14 ± 0.03 µM. The IC50 [3] was 0.07 ± 0.02 µM, the IC50 [4] was 0.41 ± 0.1 µM and the IC50 [5] was 0.16 ± 0.07 µM. For the same compound, the IC50 [6] was 0.54 ± 0.3 µM, the “efficacy in decreasing cancer spheroid viability, times higher than CDDP” value [7] was “about 32” and the “efficacy in decreasing cancer spheroid viability, times higher than OXP” value [7] was roughly 20. It also gave an IC50 [7] of 1.8 ± 0.4 µM.

For `CC(=O)[O][Pt]1([Cl])[O]C(=O)C(=O)[O]1.NC1CC=CCC1N` (racemic) [Complex 5, cis,trans,cis-[Pt(OXA)(AcO)Cl(DACHEX)]], the “% of Reduction” value [1] was 67%, the “cellular uptake” value (A431 cells) was “the worst in crossing the cell plasmalemma” and the IC50 [2] was 0.93 ± 0.3 µM. The IC50 [3] was 0.25 ± 0.05 µM, the IC50 [4] was 1.97 ± 0.4 µM and the IC50 [5] was 1.51 ± 0.6 µM. It also gave an IC50 [6] of 3.58 ± 1.4 µM and an IC50 [7] of 26.4 ± 5.5 µM.

For `NC1CC=CCC1N.O=C1[O][Pt]([OH])([Cl])[O]C1=O` (racemic) [Complex 6, cis,trans,cis-[Pt(OXA)(OH)Cl(DACHEX)]], the “% of Reduction” value [1] was 64%, the “cellular uptake” value (A431 cells) was “the worst in crossing the cell plasmalemma” and the IC50 [2] was 1.87 ± 0.4 µM. The IC50 [3] was 0.66 ± 0.02 µM, the IC50 [4] was 1.67 ± 0.4 µM and the IC50 [5] was 1.31 ± 0.7 µM. It also gave an IC50 [6] of 5.25 ± 1.2 µM and an IC50 [7] of 30.2 ± 3.8 µM.
